Reference: US20240109843A1, “BENZALDEHYDE COMPOUNDS WITH DIRECT POLYMER DESTABILIZING EFFECTS TO TREAT SICKLE CELL DISEASE” (VIRGINIA COMMONWEALTH UNIVERSITY, priority 2018, published 2024)

Assays:
Hb [1] = target: T1, Hb (Homo sapiens, UniProt P69905); assay: Oxygen equilibrium curve (OEC) studies with normal whole blood; type: cell-based; design: Hemoglobin modification, studies using non-sickling AA blood; from tissue; host or cells: non-sickling (AA) human blood, red blood cells; details: normal whole blood, 0.5, 1, 2 mM
How it was run: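 Whole human blood at 30% hematocrit incubated with compound at 0.5, 1.0 or 2.0 mM (DMSO) or without. After equilibration, pO2 and sO2 measured by automated blood gas analyser across saturation levels, and the oxygen equilibrium curve fitted by nonlinear regression.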
Target sequence in this assay (P69905 2-142 limits assumed): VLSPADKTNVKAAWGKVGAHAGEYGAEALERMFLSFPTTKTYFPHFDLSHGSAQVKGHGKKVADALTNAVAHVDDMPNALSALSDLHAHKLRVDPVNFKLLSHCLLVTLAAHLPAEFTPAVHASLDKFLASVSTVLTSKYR
Target sequence in this assay (P68871 2-147 partner limits assumed): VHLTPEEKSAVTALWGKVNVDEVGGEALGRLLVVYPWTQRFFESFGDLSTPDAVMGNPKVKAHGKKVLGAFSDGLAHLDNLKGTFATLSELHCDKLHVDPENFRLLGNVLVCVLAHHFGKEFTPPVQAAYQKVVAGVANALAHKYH

sickle red blood cells = assay: Antisickling study with human sickle blood under 2.5% oxygen; type: cell-based; details: Homo sapiens, Erythrocyte, sickle RBCs, 2.5% oxygen, read-out: sickling inhibition
How it was run: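 Homozygous SCD blood at 20% hematocrit preincubated with compound (0.5, 1, 2 mM) under air for 1 h at 37 °C, then under 2.5% O2 for 1 h. Cells fixed in 2% glutaraldehyde without air exposure; sickling scored by bright-field morphology at 40×.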

Hb [2] = target: T1, Hb; assay: Hb modification (drug-adduct formation) in SS blood suspensions by cation-exchange HPLC; type: binding; design: Blood suspensions from subjects with homozygous SCD; from tissue; host or cells: blood suspensions (20% hematocrit) from donors with homozygous SCD; lysates of the treated red cells; details: 2 mM, 4 biological replicates
How it was run: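 Homozygous SCD blood at 20% hematocrit in Hemox buffer with glucose and BSA was incubated with compound (0-2 mM) 1 h at 37° C in air, then up to 2 h hypoxia (2.5% O2). Lysates, with or without 50 mM sodium borohydride reduction, were analysed by weak cation-exchange HPLC at A410 nm for Hb-drug adducts.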
Target sequence in this assay (P69905 2-142): as the sequence (P69905 2-142 limits assumed) above
Target sequence in this assay (P68871 with tags, fused parts or gaps E7V partner): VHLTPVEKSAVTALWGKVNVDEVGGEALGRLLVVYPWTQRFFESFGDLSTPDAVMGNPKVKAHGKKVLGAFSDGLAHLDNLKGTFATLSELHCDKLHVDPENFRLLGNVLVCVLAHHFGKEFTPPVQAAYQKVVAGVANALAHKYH

[3] = system: RBCs from donors with homozygous SCD; assay: Sickle inhibition in SS blood suspensions under hypoxia (2.5% oxygen); type: cell-based; details: Homo sapiens, 2 mM, 4 biological replicates, read-out: % Sickling Inhibition (Hypoxia)
Protocol: All compounds (Comp 1-13) and comparator molecules (VZHE-039, PP-14, INN-310, and Voxelotor) were evaluated following established procedures. Blood samples from individual donors with homozygous SCD (obtained with informed consent) were diluted using Hemox buffer solution with the addition of glucose (10 mM) and BSA (0.2%) to adjust hematocrit of the blood suspensions to 20%, which standardizes the procedure to normalize the ratio of RBCs to drug, for assay consistency and reproducibility. Briefly, blood suspensions were incubated under room air in the presence of various concentrations of test compounds (0-2 mM) at 37° C. for 1 hour in 96-well round bottom plates. Subsequently, the suspensions were incubated with a hypoxic gas mixture (2.5% Oxygen gas/balance Nitrogen gas) at 37° C. for up to 2 hours prior to fixation with 2% glutaraldehyde solution without exposure to air. The fixated blood aliquots were evaluated by microscopic morphological analysis (image analysis on Image J software) to identify the proportion of sickled and non-sickled RBCs, and sickle inhibition calculated based on the % change from negative control (DMSO).

- effect on Hb oxygen binding property (OEC) (Hb [1]): most significant activities
- Hb Modification (%) (Hb [2]): 85.3 ± 11.3%
Structure (SMILES): COC(=O)c1ccc(COc2cccc(O)c2C=O)cn1 [PP14, Methyl 5-((2-formyl-3-hydroxyphenoxy)methyl)picolinate]
- inhibition at 500 µM (sickle red blood cells; 0.5 mM): > 35%
- inhibition at 1000 µM (sickle red blood cells; 1 mM): > 70%
- inhibition at 2000 µM [3]: 83.1 ± 6.9%
